pEC50: −log10 of the molar value.
Molecular target: T1, human TLR7 (Homo sapiens, UniProt Q9NYK1)
T1 construct: host or cells: HEK-Blue hTLR7 (HEK293-derived reporter cells)
T1 sequence (Q9NYK1 27-1049): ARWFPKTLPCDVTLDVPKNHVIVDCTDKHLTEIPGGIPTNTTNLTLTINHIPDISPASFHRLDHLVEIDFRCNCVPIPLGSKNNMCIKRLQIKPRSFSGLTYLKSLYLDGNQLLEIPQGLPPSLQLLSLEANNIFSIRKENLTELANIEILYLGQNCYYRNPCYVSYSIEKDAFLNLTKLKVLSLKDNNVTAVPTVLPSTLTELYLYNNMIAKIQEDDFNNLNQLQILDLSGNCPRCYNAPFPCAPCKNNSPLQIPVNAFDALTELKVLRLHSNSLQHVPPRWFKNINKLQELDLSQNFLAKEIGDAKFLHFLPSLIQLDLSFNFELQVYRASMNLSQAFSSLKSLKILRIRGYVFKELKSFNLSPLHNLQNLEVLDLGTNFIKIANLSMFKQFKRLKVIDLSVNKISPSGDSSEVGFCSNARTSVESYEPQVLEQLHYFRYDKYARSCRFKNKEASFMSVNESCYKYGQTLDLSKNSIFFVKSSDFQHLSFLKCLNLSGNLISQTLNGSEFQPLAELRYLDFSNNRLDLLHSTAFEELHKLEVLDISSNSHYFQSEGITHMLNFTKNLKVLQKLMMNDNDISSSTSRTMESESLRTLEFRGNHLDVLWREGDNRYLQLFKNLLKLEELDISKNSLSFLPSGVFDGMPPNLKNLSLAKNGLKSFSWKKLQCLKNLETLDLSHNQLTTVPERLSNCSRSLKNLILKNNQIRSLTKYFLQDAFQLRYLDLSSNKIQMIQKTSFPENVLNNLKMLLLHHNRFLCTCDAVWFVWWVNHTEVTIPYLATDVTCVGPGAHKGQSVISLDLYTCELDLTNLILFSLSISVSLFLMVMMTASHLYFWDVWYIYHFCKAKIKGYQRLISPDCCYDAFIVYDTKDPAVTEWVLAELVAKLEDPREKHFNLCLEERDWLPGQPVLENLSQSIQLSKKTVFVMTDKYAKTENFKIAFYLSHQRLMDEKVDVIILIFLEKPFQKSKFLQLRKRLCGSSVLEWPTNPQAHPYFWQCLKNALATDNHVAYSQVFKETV
Assay: Agonistic activity on human TLR7 in HEK-Blue hTLR7 cell line (QUANTI-Blue reporter)
Format: cell-based
Details: HEK-Blue hTLR7 cells, 16-22 h incubation, absorption at 630 nm; read-out: EC50 value of the agonistic effect on human TLR7
Experimental: The TLR7 agonistic activity of the compounds of the invention in HEK-Blue™ hTLR7 cell line with stable expression of human TLR7 were assayed using the following method: • 1. Weighed the test compounds and prepared stock solutions with DMSO (Sigma) at a concentration of 10 mM. […] The highest concentration was 1 mM. • 2. The test compounds and DMSO control were diluted 10-fold in DPBS buffer (Gibco) and then added to a 96-well cell culture plate (Corning) at a volume of 20 μL/well. • 3. HEK-Blue™ hTLR7 cells (Invivogen) were digested with cell separation solution (Gibco), and counted (TC-20 cell counter, Bio-rad). Cells were diluted to 4.4E5/ml using DMEM cell medium (Gibco). Added the cells to a 96-well cell culture plate at a volume of 180 μL/well. The cells were incubated for 16-22 h at 37° C. in a 5% CO2 incubator. • 4. Prepared QUANTI-Blue detection reagent (Invivogen), and added into a new 96-well plate at a volume of 180 μL/well. Twenty μL of cell culture supernatant was transferred from the cell culture plate and added to the 96-well plate and incubated at 37° C. for 1-3 hours. • 5. Neo2 multifunctional microplate reader (Bio-Tek) was used to measure the optical absorption at 630 nm, and the EC50 was calculated by GraphPad Prism.
The agonistic effect of the compounds of the invention on human TLR7 can be determined by the above experiments, and the measured EC50 value is shown in Table 1.

Structure (SMILES): Nc1nc2nc3c1[nH]c(=O)n3Cc1cc(c3c(c1)C(=O)N(CC(=O)O)C3)C/C=C\CCO2 [Compound I-1]
- pEC50: 8.52

Structure (SMILES): Nc1nc2nc3c1[nH]c(=O)n3Cc1cc(c3c(c1)C(=O)N(CC(=O)O)C3)CCCCCO2 [Compound I-3]
- pEC50: 8.00

Structure (SMILES): CN1Cc2c3cc(cc2C1=O)Cn1c(=O)[nH]c2c(N)nc(nc21)OCCC=CC3 [Compound I-4]
- pEC50: 8.30

Structure (SMILES): CN1Cc2c3cc(cc2C1=O)Cn1c(=O)[nH]c2c(N)nc(nc21)OCCCCC3 [Compound I-5]
- pEC50: 6.95

Structure (SMILES): Nc1nc2nc3c1[nH]c(=O)n3Cc1cc(c3c(c1)C(=O)N(CCN1CCCC1)C3)C/C=C\CCO2 [Compound I-6]
- pEC50: 8.70

Structure (SMILES): Nc1nc2nc3c1[nH]c(=O)n3Cc1cc(c3c(c1)C(=O)N(CCN1CCCC1)C3)C/C=C/CCO2 [Compound I-7]
- pEC50: 8.10

Structure (SMILES): Nc1nc2nc3c1[nH]c(=O)n3Cc1cc(c3c(c1)CNCC3)C/C=C\CCO2 [Compound I-8]
- pEC50: 7.82

Structure (SMILES): Nc1nc2nc3c1[nH]c(=O)n3Cc1cc(c3c(c1)CNCC3)C/C=C/CCO2 [Compound I-9]
- pEC50: 8.05

Structure (SMILES): Nc1nc2nc3c1[nH]c(=O)n3Cc1cc(c3c(c1)CNCC3)CCCCCO2 [Compound I-10]
- pEC50: 7.59

Structure (SMILES): Nc1nc2nc3c1[nH]c(=O)n3Cc1cc(c3c(c1)CCNC3)C/C=C\CCO2 [Compound I-11]
- pEC50: 8.22

Structure (SMILES): Nc1nc2nc3c1[nH]c(=O)n3Cc1cc(c3c(c1)CCNC3)C/C=C/CCO2 [Compound I-12]
- pEC50: 8.10

Structure (SMILES): Nc1nc2nc3c1[nH]c(=O)n3Cc1cc(c3c(c1)CCNC3)CCCCCO2 [Compound I-13]
- pEC50: 7.55

Structure (SMILES): Nc1nc2nc3c1[nH]c(=O)n3Cc1cc(c3c(c1)CCC(C(=O)O)O3)CC=CCCO2 (stereo not shown) [Compound I-14]
- pEC50: 7.42

Structure (SMILES): Nc1nc2nc3c1[nH]c(=O)n3Cc1cc(c3c(c1)CCC(C(=O)O)O3)CCCCCO2 (stereo not shown) [Compound I-15]
- pEC50: 6.64

Structure (SMILES): Nc1nc2nc3c1[nH]c(=O)n3Cc1cc(c3c(c1)CC(C(=O)O)O3)CC=CCCO2 (stereo not shown) [Compound I-16]
- pEC50: 7.77

Structure (SMILES): Nc1nc2nc3c1[nH]c(=O)n3Cc1cc(c3c(c1)CC(C(=O)O)O3)CCCCCO2 (stereo not shown) [Compound I-17]
- pEC50: 6.78

Structure (SMILES): Nc1nc2nc3c1[nH]c(=O)n3Cc1cc(c3c(c1)CC(C(=O)O)CO3)CC=CCCO2 (stereo not shown) [Compound I-18]
- pEC50: 7.70

Structure (SMILES): Nc1nc2nc3c1[nH]c(=O)n3Cc1cc(c3c(c1)CC(C(=O)O)CO3)CCCCCO2 (stereo not shown) [Compound I-19]
- pEC50: 6.78

Structure (SMILES): CC1(C(=O)O)Cc2cc3cc(c2C1)C/C=C\CCOc1nc(N)c2[nH]c(=O)n(c2n1)C3 (stereo not shown) [Compound I-21]
- pEC50: 7.38

Structure (SMILES): Nc1nc2nc3c1[nH]c(=O)n3Cc1cc(c3c(c1)CN(CC(=O)O)CC3)C/C=C/CCO2 [Compound I-22]
- pEC50: 7.82

Structure (SMILES): Nc1nc2nc3c1[nH]c(=O)n3Cc1cc(c3c(c1)CN(CC(=O)O)CC3)CCCCCO2 [Compound I-23]
- pEC50: 7.10

Structure (SMILES): Nc1nc2nc3c1[nH]c(=O)n3Cc1cc(c3c(c1)CCN(CC(=O)O)C3)CC=CCCO2 [Compound I-24]
- pEC50: 7.08

Structure (SMILES): Nc1nc2nc3c1[nH]c(=O)n3Cc1cc(c3c(c1)CCN(CC(=O)O)C3)CCCCCO2 [Compound I-25]
- pEC50: 7.02

Structure (SMILES): CC(C)(CN1CCc2c3cc(cc2C1)Cn1c(=O)[nH]c2c(N)nc(nc21)OCCCCC3)C(=O)O [Compound I-27]
- pEC50: 7.12

Structure (SMILES): Nc1nc2nc3c1[nH]c(=O)n3Cc1cc(c3c(c1)CNCC3)CCCCCCO2 [Compound I-28]
- pEC50: 6.95

Structure (SMILES): Nc1nc2nc3c1[nH]c(=O)n3Cc1cc3c(c(c1)OC[C@@H]1CC[C@H]1CO2)CCNC3 [Compound I-29]
- pEC50: 7.46

Structure (SMILES): Nc1nc2nc3c1[nH]c(=O)n3Cc1cc3c(c(c1)OCCCO2)CCNC3 [Compound I-30]
- pEC50: 7.12

Structure (SMILES): Nc1nc2nc3c1[nH]c(=O)n3Cc1cc3c(c(c1)OCCCCO2)CCNC3 [Compound I-31]
- pEC50: 7.41

Structure (SMILES): Nc1nc2nc3c1[nH]c(=O)n3Cc1cc3c(c(c1)OC[C@@H]1C[C@H]1CO2)CCNC3 [Compound I-32]
- pEC50: 7.51

Structure (SMILES): Nc1nc2nc3c1[nH]c(=O)n3Cc1cc3c(c(c1)OC[C@@H]1CCC[C@H]1CO2)CCNC3 [Compound I-33]
- pEC50: 6.85

Structure (SMILES): Nc1nc2cc3c1[nH]c(=O)n3Cc1cc(c3c(c1)CNCC3)C/C=C/CCO2 [Compound I-34]
- pEC50: 6.88

Structure (SMILES): CN1CCc2c3cc(cc2C1)Cn1c(=O)[nH]c2c(N)nc(nc21)OCCCCC3 [Compound I-36]
- pEC50: 7.70

Structure (SMILES): Nc1nc2nc3c1[nH]c(=O)n3Cc1cc(c3c(c1)CN(CCO)CC3)CCCCCO2 [Compound I-38]
- pEC50: 7.33

Structure (SMILES): Nc1nc2nc3c1[nH]c(=O)n3Cc1cc(c3c(c1)CN(CC(F)(F)F)CC3)CCCCCO2 [Compound I-39]
- pEC50: 5.50

Structure (SMILES): Nc1nc2nc3c1[nH]c(=O)n3Cc1cc(c3c(c1)CN(C1CCNCC1)CC3)CCCCCO2 [Compound I-40]
- pEC50: 6.55

Structure (SMILES): Nc1nc2nc3c1[nH]c(=O)n3Cc1cc(c3c(c1)CN(C1CCOCC1)CC3)CCCCCO2 [Compound I-41]
- pEC50: 7.66

Structure (SMILES): CS(=O)(=O)N1CCc2c3cc(cc2C1)Cn1c(=O)[nH]c2c(N)nc(nc21)OCCC=CC3 [Compound I-43]
- pEC50: 8.52

Structure (SMILES): Nc1nc2nc3c1[nH]c(=O)n3Cc1cc(c3c(c1)CN(C(=O)c1ccccc1)CC3)CC=CCCO2 [Compound I-44]
- pEC50: 7.42

Structure (SMILES): Nc1nc2nc3c1[nH]c(=O)n3Cc1cc(c3c(c1)CN(S(=O)(=O)c1ccccc1)CC3)CC=CCCO2 [Compound I-45]
- pEC50: 6.24

Structure (SMILES): Cc1cnc(N2CCc3c4cc(cc3C2)Cn2c(=O)[nH]c3c(N)nc(nc32)OCCCCC4)nc1 [Compound I-46]
- pEC50: 6.01

Structure (SMILES): Nc1nc2nc3c1[nH]c(=O)n3Cc1cc(c3c(c1)CN(Cc1ccncc1)CC3)CCCCCO2 [Compound I-47]
- pEC50: 6.78

Structure (SMILES): COC(=O)CN1CCc2c3cc(cc2C1)Cn1c(=O)[nH]c2c(N)nc(nc21)OCCCCC3 [Compound I-49]
- pEC50: 7.14

Structure (SMILES): CC(C)(C)N1Cc2c3cc(cc2C1=O)Cn1c(=O)[nH]c2c(N)nc(nc21)SCC/C=C\C3 [Compound I-52]
- pEC50: 7.72

Structure (SMILES): CN1CCC=CCc2cc(cc3c2CN(C(C)(C)C)C3=O)Cn2c(=O)[nH]c3c(N)nc1nc32 [Compound I-58]
- pEC50: 5.96

Structure (SMILES): CS(=O)(=O)CCN1CCc2c3cc(cc2C1)Cn1c(=O)[nH]c2c(N)nc(nc21)OCCCCC3 [Compound I-59]
- pEC50: 7.06

Structure (SMILES): Nc1nc2nc3c1[nH]c(=O)n3Cc1cc(c3c(c1)CNCC3)CCCCCS2(=O)=O [Compound I-61]
- pEC50: 7.89

Structure (SMILES): Nc1nc2nc3c1[nH]c(=O)n3Cc1cc(c3c(c1)CN(C1CCC1)CC3)CCCCCS2(=O)=O [Compound I-62]
- pEC50: 7.89

Structure (SMILES): CC(C)N1CCc2c3cc(cc2C1)Cn1c(=O)[nH]c2c(N)nc(nc21)S(=O)(=O)CCCCC3 [Compound I-63]
- pEC50: 7.51

Structure (SMILES): CC(C)N1CCc2cc3cc(c2C1)OCCCCOc1nc(N)c2[nH]c(=O)n(c2n1)C3 [Compound I-64]
- pEC50: 7.96

Structure (SMILES): Nc1nc2nc3c1[nH]c(=O)n3Cc1cc(cc3c1CNCC3)OCCCCO2 [Compound I-66]
- pEC50: 6.41

Structure (SMILES): Nc1nc2nc3c1[nH]c(=O)n3Cc1cc(cc3c1OCC3)CCCCCO2 [Compound I-67]
- pEC50: 6.50

Structure (SMILES): Nc1nc2nc3c1[nH]c(=O)n3Cc1cc(cc3c1CN(C1CCC1)CC3)OCCCCO2 [Compound I-68]
- pEC50: 7.60
